Experimental data published in ChEMBL document CHEMBL1201862, “PubChem BioAssay data set” (2004).
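Five concentrations, 48 hours, 96-well plates. GI50: concentration for 50% inhibition of growth.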 Activity calls are given as the source filed them. Rule as the data show it: active = GI50 up to about 1.1 µM and inactive = higher.

Key:
Test in all cases: NCI anticancer screen, dose series, 48 h
[1] = test system: HCT-15
[2] = test system: OVCAR-4
[3] = test system: SF-268
[4] = test system: SF-295
[5] = test system: PC-3
[6] = test system: SW-620
[7] = test system: NCI-H460
[8] = test system: 786-0
[9] = test system: EKVX
[10] = test system: COLO 205
[11] = test system: NCI/ADR-RES
[12] = test system: HCC 2998
[13] = test system: NCI-H23
[14] = test system: SK-MEL-2
[15] = test system: KM12
[16] = test system: SK-MEL-5
[17] = test system: IGROV-1
[18] = test system: T47D
[19] = test system: A549
[20] = test system: HT-29
[21] = test system: UACC-62
[22] = test system: HOP-62
[23] = test system: DU-145
[24] = test system: OVCAR-8
[25] = test system: UO-31
[26] = test system: SF-539
[27] = test system: HCT-116
[28] = test system: LOX IMVI
[29] = test system: NCI-H226
[30] = test system: OVCAR-5
[31] = test system: MOLT-4
[32] = test system: SK-MEL-28
[33] = test system: CCRF-CEM
[34] = test system: SNB-75
[35] = test system: MDA-MB-231
[36] = test system: SNB-19
[37] = test system: RXF 393
[38] = test system: TK-10
[39] = test system: HOP-92
[40] = test system: M14
[41] = test system: RPMI-8226
[42] = test system: SK-OV-3
[43] = test system: BT-549
[44] = test system: K562
[45] = test system: MDA-N
[46] = test system: OVCAR-3
[47] = test system: SR
[48] = test system: A498
[49] = test system: NCI-H522
[50] = test system: MCF7
[51] = test system: MDA-MB-435
[52] = test system: Hs-578T
[53] = test system: HL-60
[54] = test system: ACHN
[55] = test system: SN12C
[56] = test system: U-251
[57] = test system: UACC-257
[58] = test system: CAKI-1
[59] = test system: Malme-3M

In the case of `Cc1cc2c([N+](=O)[O-])cc3c(c2o1)C(=O)C=CC3=O`, the GI50 [1] is reported as 15 µM, the GI50 [2] is reported as 16.1 µM (inactive) and the GI50 [3] is reported as 12.4 µM (inactive). The GI50 [4] was 8.13 µM (inactive), the GI50 [5] was 16.4 µM (inactive) and the GI50 [6] was 2.43 µM (inactive). The GI50 [7] was 18.5 µM (inactive), the GI50 [8] was 2.01 µM (inactive) and the GI50 [9] was 3.37 µM (inactive). For the same compound, the GI50 [10] was 2.3 µM (inactive), the GI50 [11] was 22.9 µM (inactive) and the GI50 [12] was 30.5 µM (inactive). For the same compound, the GI50 [13] was 17.7 µM (inactive), the GI50 [14] was 19.1 µM (inactive) and the GI50 [15] was 16.6 µM (inactive). The GI50 [16] was 14.2 µM (inactive), the GI50 [17] was 7.41 µM (inactive) and the GI50 [18] was 3.12 µM (inactive). The GI50 [19] was 18.3 µM (inactive), the GI50 [20] was 2.12 µM (inactive) and the GI50 [21] was 15.2 µM (inactive). For the same compound, the GI50 [22] was 19 µM (inactive), the GI50 [23] was 7.93 µM (inactive) and the GI50 [24] was 19.6 µM (inactive). The GI50 [25] was 1.67 µM (inactive), the GI50 [26] was 15.1 µM (inactive) and the GI50 [27] was 5.51 µM (inactive). For the same compound, the GI50 [28] was 6.76 µM (inactive), the GI50 [29] was 28.6 µM (inactive) and the GI50 [30] was 20 µM (inactive). For the same compound, the GI50 [31] was 0.415 µM (active), the GI50 [32] was 8.85 µM (inactive) and the GI50 [33] was 1.43 µM (inactive). For the same compound, the GI50 [34] was 25.6 µM (inactive), the GI50 [35] was 18.7 µM (inactive) and the GI50 [36] was 15.5 µM (inactive). The GI50 [37] was 1.89 µM (inactive), the GI50 [38] was 2.38 µM (inactive) and the GI50 [39] was 1.72 µM (inactive). The GI50 [40] was 5.58 µM (inactive), the GI50 [41] was 586 nM (active) and the GI50 [42] was 29.5 µM (inactive). For the same compound, the GI50 [43] was 16.6 µM (inactive), the GI50 [44] was 1.79 µM (inactive) and the GI50 [45] was 14.5 µM (inactive). The GI50 [46] was 5.64 µM (inactive), the GI50 [47] was 5.41 µM (inactive) and the GI50 [48] was 15.5 µM (inactive). For the same compound, the GI50 [49] was 1.52 µM (inactive), the GI50 [50] was 4.18 µM (inactive) and the GI50 [51] was 3.2 µM (inactive). For the same compound, the GI50 [52] was 18.5 µM (inactive), the GI50 [53] was 2.2 µM (inactive) and the GI50 [54] was 1.89 µM (inactive). The GI50 [55] was 6.19 µM (inactive), the GI50 [56] was 17.7 µM (inactive) and the GI50 [57] was 2.62 µM (inactive). The GI50 [58] was 1.06 µM (active).
With `CC(=O)Oc1ccc2c3c1[C@H]1O[C@H]1c1cccc(c1-3)[C@@H]1O[C@H]21` the GI50 [1] was 5 µM, the GI50 [2] was 7.23 µM (inactive) and the GI50 [3] was 5.62 µM (inactive). For the same compound, the GI50 [4] was 10 µM (inactive), the GI50 [5] was 13.5 µM (inactive) and the GI50 [6] was 2.09 µM (inactive). The GI50 [8] was 2.21 µM (inactive), the GI50 [9] was 16.5 µM (inactive) and the GI50 [10] was 10.4 µM (inactive). For the same compound, the GI50 [11] was 10 µM (inactive), the GI50 [12] was 7.78 µM (inactive) and the GI50 [13] was 4.92 µM (inactive). The GI50 [14] was 9.55 µM (inactive), the GI50 [15] was 12.6 µM (inactive) and the GI50 [16] was 4.25 µM (inactive). For the same compound, the GI50 [18] was 2.09 µM (inactive), the GI50 [59] was 2.72 µM (inactive) and the GI50 [19] was 7.33 µM (inactive). For the same compound, the GI50 [20] was 7.18 µM (inactive), the GI50 [21] was 8 µM (inactive) and the GI50 [22] was 5.19 µM (inactive). For the same compound, the GI50 [23] was 7.83 µM (inactive), the GI50 [24] was 4.22 µM (inactive) and the GI50 [25] was 3.74 µM (inactive). The GI50 [27] was 11.2 µM (inactive), the GI50 [28] was 1.81 µM (inactive) and the GI50 [29] was 21.4 µM (inactive). The GI50 [30] was 14.8 µM (inactive), the GI50 [31] was 18.5 µM (inactive) and the GI50 [32] was 8.15 µM (inactive). For the same compound, the GI50 [34] was 4.13 µM (inactive), the GI50 [35] was 12.8 µM (inactive) and the GI50 [36] was 15.8 µM (inactive). For the same compound, the GI50 [37] was 0.409 µM (active), the GI50 [38] was 13.9 µM (inactive) and the GI50 [39] was 9.68 µM (inactive). The GI50 [40] was 4.81 µM (inactive), the GI50 [41] was 3220 nM (inactive) and the GI50 [42] was 14.6 µM (inactive). For the same compound, the GI50 [43] was 8.97 µM (inactive), the GI50 [44] was 5.02 µM (inactive) and the GI50 [45] was 6.87 µM (inactive). The GI50 [46] was 3.18 µM (inactive), the GI50 [47] was 10.9 µM (inactive) and the GI50 [48] was 11.9 µM (inactive). For the same compound, the GI50 [49] was 1.9 µM (inactive), the GI50 [50] was 18.4 µM (inactive) and the GI50 [51] was 2.04 µM (inactive). The GI50 [52] was 5.58 µM (inactive), the GI50 [53] was 1.82 µM (inactive) and the GI50 [54] was 18.3 µM (inactive). For the same compound, the GI50 [55] was 2.69 µM (inactive), the GI50 [56] was 4.99 µM (inactive) and the GI50 [57] was 8.22 µM (inactive). The GI50 [58] was 3.22 µM (inactive).
